According to PubChem BioAssay AID2060603 (Molecular Pharmacology Branch, DTP, NCI, 2025):

Tested on: 422866-222-R5-J1-PDC spheroid viability
Assay: Anticancer human tumor 422866-222-R5-J1-PDC patient-derived pancreatic adenocarcinoma cell line growth inhibition [CLK]
Settings: spheroids with HUVEC and MSC; for IC50: curve of first compound; for viability, T/C: stronger effect = lower value
How it was run: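 Patient-derived tumor cells grown as complex spheroids with HUVEC endothelial cells and mesenchymal stem cells, treated with drug combinations. Concentrations descend in half-log steps from near clinical Cmax, or from 10 microM if Cmax unknown.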
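Note: spheroids exposed to agents for seven days before readout.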

CC(C)CC(NC(=O)C(Cc1ccccc1)NC(=O)c1cnccn1)B(O)O (centres undefined) + CN1CCN(c2cc(C(=O)Nc3cc4cc(-c5cnn(C)c5)ccc4cn3)ccn2)CC1
IC50 (second compound 0.0316 µM): 4.7 nM
IC50 (second compound 0.1 µM): 5.27 nM
IC50 (second compound 0.316 µM): 4.39 nM
IC50 (second compound 1 µM): < 0.949 nM
IC50 (second compound 3.16 µM): < 0.949 nM
IC50 (second compound 10 µM): < 0.949 nM
viability, T/C (second compound 0.0316 µM, first compound 0.000949 µM): 111%
viability, T/C (second compound 0.0316 µM, first compound 0.003 µM): 76.2%
viability, T/C (second compound 0.0316 µM, first compound 0.00949 µM): 8.95%
viability, T/C (second compound 0.0316 µM, first compound 0.03 µM): 1.59%
viability, T/C (second compound 0.0316 µM, first compound 0.0949 µM): 0.94%
viability, T/C (second compound 0.0316 µM, first compound 0.3 µM): 0.87%
viability, T/C (second compound 0.1 µM, first compound 0.000949 µM): 115%
viability, T/C (second compound 0.1 µM, first compound 0.003 µM): 89.7%
viability, T/C (second compound 0.1 µM, first compound 0.00949 µM): 8.61%
viability, T/C (second compound 0.1 µM, first compound 0.03 µM): 1.61%
viability, T/C (second compound 0.1 µM, first compound 0.0949 µM): 0.69%
viability, T/C (second compound 0.1 µM, first compound 0.3 µM): 3%
viability, T/C (second compound 0.316 µM, first compound 0.000949 µM): 112%
viability, T/C (second compound 0.316 µM, first compound 0.003 µM): 72.7%
viability, T/C (second compound 0.316 µM, first compound 0.00949 µM): 4.02%
viability, T/C (second compound 0.316 µM, first compound 0.03 µM): 0.92%
viability, T/C (second compound 0.316 µM, first compound 0.0949 µM): 0.7%
viability, T/C (second compound 0.316 µM, first compound 0.3 µM): 0.68%
viability, T/C (second compound 1 µM, first compound 0.000949 µM): 25.4%
viability, T/C (second compound 1 µM, first compound 0.003 µM): 4.84%
viability, T/C (second compound 1 µM, first compound 0.00949 µM): 1.06%
viability, T/C (second compound 1 µM, first compound 0.03 µM): 0.61%
viability, T/C (second compound 1 µM, first compound 0.0949 µM): 0.91%
viability, T/C (second compound 1 µM, first compound 0.3 µM): 2.12%
viability, T/C (second compound 3.16 µM, first compound 0.000949 µM): 9.95%
viability, T/C (second compound 3.16 µM, first compound 0.003 µM): 4.26%
viability, T/C (second compound 3.16 µM, first compound 0.00949 µM): 1.32%
viability, T/C (second compound 3.16 µM, first compound 0.03 µM): 0.91%
viability, T/C (second compound 3.16 µM, first compound 0.0949 µM): 1.14%
viability, T/C (second compound 3.16 µM, first compound 0.3 µM): 1.2%
viability, T/C (second compound 10 µM, first compound 0.000949 µM): 1.77%
viability, T/C (second compound 10 µM, first compound 0.003 µM): 0.99%
viability, T/C (second compound 10 µM, first compound 0.00949 µM): 1.54%
viability, T/C (second compound 10 µM, first compound 0.03 µM): 0.44%
viability, T/C (second compound 10 µM, first compound 0.0949 µM): 1.53%
viability, T/C (second compound 10 µM, first compound 0.3 µM): 0.46%

CC1COCCN1c1cc(C2(S(C)(=N)=O)CC2)nc(-c2ccnc3[nH]ccc23)n1 (centres undefined) + CN1CCN(c2cc(C(=O)Nc3cc4cc(-c5cnn(C)c5)ccc4cn3)ccn2)CC1
IC50 (second compound 0.0316 µM): > 10000 nM
IC50 (second compound 0.1 µM): > 10000 nM
IC50 (second compound 0.316 µM): > 10000 nM
IC50 (second compound 1 µM): < 31.6 nM
IC50 (second compound 3.16 µM): < 31.6 nM
IC50 (second compound 10 µM): < 31.6 nM
viability, T/C (second compound 0.0316 µM, first compound 0.0316 µM): 112%
viability, T/C (second compound 0.0316 µM, first compound 0.1 µM): 104%
viability, T/C (second compound 0.0316 µM, first compound 0.316 µM): 93.6%
viability, T/C (second compound 0.0316 µM, first compound 1 µM): 89.3%
viability, T/C (second compound 0.0316 µM, first compound 3.16 µM): 56%
viability, T/C (second compound 0.0316 µM, first compound 10 µM): 55.6%
viability, T/C (second compound 0.1 µM, first compound 0.0316 µM): 115%
viability, T/C (second compound 0.1 µM, first compound 0.1 µM): 95.7%
viability, T/C (second compound 0.1 µM, first compound 0.316 µM): 113%
viability, T/C (second compound 0.1 µM, first compound 1 µM): 74.3%
viability, T/C (second compound 0.1 µM, first compound 3.16 µM): 60.2%
viability, T/C (second compound 0.1 µM, first compound 10 µM): 61.2%
viability, T/C (second compound 0.316 µM, first compound 0.0316 µM): 95%
viability, T/C (second compound 0.316 µM, first compound 0.1 µM): 85.8%
viability, T/C (second compound 0.316 µM, first compound 0.316 µM): 79.9%
viability, T/C (second compound 0.316 µM, first compound 1 µM): 73.2%
viability, T/C (second compound 0.316 µM, first compound 3.16 µM): 61.2%
viability, T/C (second compound 0.316 µM, first compound 10 µM): 56.2%
viability, T/C (second compound 1 µM, first compound 0.0316 µM): 30.9%
viability, T/C (second compound 1 µM, first compound 0.1 µM): 26.6%
viability, T/C (second compound 1 µM, first compound 0.316 µM): 27.7%
viability, T/C (second compound 1 µM, first compound 1 µM): 21.6%
viability, T/C (second compound 1 µM, first compound 3.16 µM): 23.8%
viability, T/C (second compound 1 µM, first compound 10 µM): 17.5%
viability, T/C (second compound 3.16 µM, first compound 0.0316 µM): 10.7%
viability, T/C (second compound 3.16 µM, first compound 0.1 µM): 10.4%
viability, T/C (second compound 3.16 µM, first compound 0.316 µM): 11.6%
viability, T/C (second compound 3.16 µM, first compound 1 µM): 10.4%
viability, T/C (second compound 3.16 µM, first compound 3.16 µM): 10.6%
viability, T/C (second compound 3.16 µM, first compound 10 µM): 10.2%
viability, T/C (second compound 10 µM, first compound 0.0316 µM): 2.45%
viability, T/C (second compound 10 µM, first compound 0.1 µM): 2.21%
viability, T/C (second compound 10 µM, first compound 0.316 µM): 1.54%
viability, T/C (second compound 10 µM, first compound 1 µM): 2.27%
viability, T/C (second compound 10 µM, first compound 3.16 µM): 4.47%
viability, T/C (second compound 10 µM, first compound 10 µM): 2.46%
